According to ChEMBL document CHEMBL3400044, “Minimization of drug-drug interaction risk and candidate selection in a natural product-based class of gamma-secretase modulators” (Bioorg Med Chem Lett, 2015):

Assay: physchem

| Compound | pKa |
| --- | --- |
| CCO[C@@H]([C@H]1C[C@@H](C)[C@H]2[C@H](O1)[C@H](O)[C@@]1(C)[C@@H]3CC[C@H]4C(C)(C)[C@@H](O[C@H]5CNCCO5)CC[C@@]45C[C@@]35CC[C@]21C)C(C)(C)O | 7.8 |
| CCO[C@@H]([C@H]1C[C@@H](C)[C@H]2[C@H](O1)[C@H](O)[C@@]1(C)[C@@H]3CC[C@H]4C(C)(C)[C@@H](O[C@H]5CN(C)CCO5)CC[C@@]45C[C@@]35CC[C@]21C)C(C)(C)O | 7.2 |
| CCO[C@@H]([C@H]1C[C@@H](C)[C@H]2[C@H](O1)[C@H](O)[C@@]1(C)[C@@H]3CC[C@H]4C(C)(C)[C@@H](O[C@H]5CN(C6COC6)CCO5)CC[C@@]45C[C@@]35CC[C@]21C)C(C)(C)O | 5.1 |
| CCO[C@@H]([C@H]1C[C@@H](C)[C@H]2[C@H](O1)[C@H](O)[C@@]1(C)[C@@H]3CC[C@H]4C(C)(C)[C@@H](O[C@H]5CN(C6CNC6)CCO5)CC[C@@]45C[C@@]35CC[C@]21C)C(C)(C)O | 10.7 |
| CCO[C@@H]([C@H]1C[C@@H](C)[C@H]2[C@H](O1)[C@H](O)[C@@]1(C)[C@@H]3CC[C@H]4C(C)(C)[C@@H](O[C@H]5CN(C6(C)COC6)CCO5)CC[C@@]45C[C@@]35CC[C@]21C)C(C)(C)O | 5.2 |

Second part, the compound after the results:

| pKa | Compound |
| --- | --- |
| 5.2 | CCO[C@@H]([C@H]1C[C@@H](C)[C@H]2[C@H](O1)[C@H](O)[C@@]1(C)[C@@H]3CC[C@H]4C(C)(C)[C@@H](O[C@H]5CN(CC(=O)N6CCC6)CCO5)CC[C@@]45C[C@@]35CC[C@]21C)C(C)(C)O |
| 9.4 | CCO[C@@H]([C@H]1C[C@@H](C)[C@H]2[C@H](O1)[C@H](O)[C@@]1(C)[C@@H]3CC[C@H]4C(C)(C)[C@@H](O[C@H]5CN(CCN6CCC6)CCO5)CC[C@@]45C[C@@]35CC[C@]21C)C(C)(C)O |
| 7.3 | CCO[C@@H]([C@H]1C[C@@H](C)[C@H]2[C@H](O1)[C@H](O)[C@@]1(C)[C@@H]3CC[C@H]4C(C)(C)[C@@H](O[C@H]5CN(CC)CCO5)CC[C@@]45C[C@@]35CC[C@]21C)C(C)(C)O |
